Results: patent publication US7138361B2, “Herbicidal heterocycles” (E. I. du Pont de Nemours and Company, priority 2000, dated 2006)

Columns and labels:
Assay in all cases: Test D greenhouse paddy-water test in rice
Assay type in all cases: in vivo
Details in all cases: 21 days, 0-100 scale
[1] = system: direct-seeded rice seedlings (Oryza saliva cv. 'Japonica—M202'; Oss)
Source text: (§1) Four plastic pots (ca. 16-cm diameter) per rate were partially filled with sterilized Tama silt loam soil comprised of a 35:50:15 ratio of sand, silt and clay and 2.6% organic matter. Separate plantings for each of the four pots were as follows. Seeds from the U.S. of Heteranthera limosa (Hl), Monochoria vaginalis (Mv), Ammania auriculata (Aa), and Sphenoclea zeylanica (Sz) were planted into one 16-cm pot for each rate. Seeds from the U.S. of Cyperus iria (Ci), Leptochloa fascicularis (Li), one stand of 9 or 10 direct-seeded rice seedlings (Oryza saliva cv. ‘Japonica—M202’; Oss), and one stand of 6 transplanted rice seedlings (Oryza sativa cv. ‘Japonica—M202’; Ost) were planted into one 16-cm pot for each rate. Seeds from the U.S. of Cyperus difformis (Cd), Alisma plantago-aquatica (Ap), and Scirpus mucronatus (Sm) were planted into one 16-cm pot for each rate. Seeds from the U.S. of Echinochloa crus-galli (Ecg), Echinochloa oryzicola (Eor), Echinochloa oryzoides (Eoz) and Echinochloa colonum (Ecc) were planted into one 16-cm pot for each rate. Plantings were sequential so that crop and weed species were at the 2.0 to 2.5-leaf stage at time of treatment.
(§2) Potted plants were grown in a greenhouse with day/night temperature settings of 29.5/26.7° C., and supplemental balanced lighting was provided to maintain a 16-hour photoperiod. Test pots were maintained in the greenhouse until test completion.
(§3) Chemical treatments consisting of Compound 1 of Index Table A (Cmpd 1), daimuron (Cmpd D), quinoclamine (Cmpd Q) and combinations thereof were formulated in acetone. At time of treatment, test pots were flooded to 3 cm above the soil surface, treated by application of test compounds directly to the paddy water, and then maintained at that water depth for the duration of the test. Effects of treatments on rice and weeds were visually evaluated by comparison to untreated controls after 21 days. Plant response ratings are reported on a 0 to 100 scale; where 0 is no effect and 100 is complete control. ND means no data.
(§4) Colby's equation was used to calculate the expected additive herbicidal effect of the mixtures of Compound 1 with daimuron (Cmpd D) and quinoclamine (Cmpd Q). Colby's equation (Colby, S. R “Calculating Synergistic and Antagonistic Responses of Herbicide Combinations,” Weeds, 15(1), pp 20–22 (1967)) calculates the expected additive effect of herbicidal mixtures, and for two active ingredients is of the form: Pa+b=Pa+Pb−(PaPb/100) wherein Pa+b is the percentage effect of the mixture expected from additive contribution of the individual components, • Pa is the observed percentage effect of the first active ingredient at the same use rate as in the mixture, and • Pb is the observed percentage effect of the second active ingredient at the same use rate as in the mixture.

[2] = system: Alisma plantago-aquatica (Ap)
Source text: as §1, §2, §3, §4

[3] = system: Leptochloa fascicularis (Li)
Source text: as §1, §2, §3, §4

[4] = system: Echinochloa colonum (Ecc)
Source text: as §1, §2, §3, §4

[5] = system: transplanted rice seedlings (Oryza sativa cv. 'Japonica—M202'; Ost)
Source text: as §1, §2, §3, §4

[6] = system: Echinochloa crus-galli (Ecg)
Source text: as §1, §2, §3, §4

[7] = system: Sphenoclea zeylanica (Sz)
Source text: as §1, §2, §3, §4

[8] = system: Cyperus difformis (Cd)
Source text: as §1, §2, §3, §4

[9] = system: Echinochloa oryzicola (Eor)
Source text: as §1, §2, §3, §4

[10] = system: Monochoria vaginalis (Mv)
Source text: as §1, §2, §3, §4

[11] = system: Echinochloa oryzoides (Eoz)
Source text: as §1, §2, §3, §4

[12] = system: Ammania auriculata (Aa)
Source text: as §1, §2, §3, §4

[13] = system: Heteranthera limosa (Hl)
Source text: as §1, §2, §3, §4

[14] = system: Scirpus mucronatus (Sm)
Source text: as §1, §2, §3, §4

[15] = system: Cyperus iria (Ci)
Source text: as §1, §2, §3, §4

CC(C)(C)c1ccn(C2SCN(c3cccc(C(F)(F)F)c3)C2=O)n1 (centres unmarked) [Compound 1]
95: Obs. (observed effect) Aa ([12]; 64 g/ha alone) | Obs. (observed effect) Ci ([15]; 32 g/ha alone)
100: Obs. (observed effect) Oss ([1]; 250 g/ha alone) | Obs. (observed effect) Oss ([1]; 500 g/ha alone) | Obs. (observed effect) Ap ([2]; 32 g/ha alone) | Obs. (observed effect) Ap ([2]; 64 g/ha alone) | Obs. (observed effect) Ap ([2]; 125 g/ha alone) | Obs. (observed effect) Ap ([2]; 250 g/ha alone) | Obs. (observed effect) Ap ([2]; 500 g/ha alone) | Obs. (observed effect) Lf ([3]; 64 g/ha alone) | Obs. (observed effect) Lf ([3]; 125 g/ha alone) | Obs. (observed effect) Lf ([3]; 250 g/ha alone) | Obs. (observed effect) Lf ([3]; 500 g/ha alone) | Obs. (observed effect) Ecc ([4]; 64 g/ha alone) | Obs. (observed effect) Ecc ([4]; 125 g/ha alone) | Obs. (observed effect) Ecc ([4]; 250 g/ha alone) | Obs. (observed effect) Ecc ([4]; 500 g/ha alone) | Obs. (observed effect) Ecg ([6]; 125 g/ha alone) | Obs. (observed effect) Ecg ([6]; 250 g/ha alone) | Obs. (observed effect) Ecg ([6]; 500 g/ha alone) | Obs. (observed effect) Sz ([7]; 32 g/ha alone) | Obs. (observed effect) Sz ([7]; 64 g/ha alone) | Obs. (observed effect) Sz ([7]; 125 g/ha alone) | Obs. (observed effect) Sz ([7]; 250 g/ha alone) | Obs. (observed effect) Sz ([7]; 500 g/ha alone) | Obs. (observed effect) Cd ([8]; 32 g/ha alone) | Obs. (observed effect) Cd ([8]; 64 g/ha alone) | Obs. (observed effect) Cd ([8]; 125 g/ha alone) | Obs. (observed effect) Cd ([8]; 250 g/ha alone) | Obs. (observed effect) Cd ([8]; 500 g/ha alone) | Obs. (observed effect) Eor ([9]; 250 g/ha alone) | Obs. (observed effect) Eor ([9]; 500 g/ha alone) | Obs. (observed effect) Mv ([10]; 32 g/ha alone) | Obs. (observed effect) Mv ([10]; 64 g/ha alone) | Obs. (observed effect) Mv ([10]; 125 g/ha alone) | Obs. (observed effect) Mv ([10]; 250 g/ha alone) | Obs. (observed effect) Mv ([10]; 500 g/ha alone) | Obs. (observed effect) Eoz ([11]; 64 g/ha alone) | Obs. (observed effect) Eoz ([11]; 125 g/ha alone) | Obs. (observed effect) Eoz ([11]; 250 g/ha alone) | Obs. (observed effect) Eoz ([11]; 500 g/ha alone) | Obs. (observed effect) Aa ([12]; 125 g/ha alone) | Obs. (observed effect) Aa ([12]; 250 g/ha alone) | Obs. (observed effect) Aa ([12]; 500 g/ha alone) | Obs. (observed effect) Hl ([13]; 250 g/ha alone) | Obs. (observed effect) Hl ([13]; 500 g/ha alone) | Obs. (observed effect) Sm ([14]; 64 g/ha alone) | Obs. (observed effect) Sm ([14]; 125 g/ha alone) | Obs. (observed effect) Sm ([14]; 250 g/ha alone) | Obs. (observed effect) Sm ([14]; 500 g/ha alone) | Obs. (observed effect) Ci ([15]; 64 g/ha alone) | Obs. (observed effect) Ci ([15]; 125 g/ha alone) | Obs. (observed effect) Ci ([15]; 250 g/ha alone) | Obs. (observed effect) Ci ([15]; 500 g/ha alone)
15: Obs. (observed effect) Ost ([5]; 32 g/ha alone)
70: Obs. (observed effect) Oss ([1]; 125 g/ha alone)
60: Obs. (observed effect) Ost ([5]; 500 g/ha alone) | Obs. (observed effect) Sm ([14]; 32 g/ha alone)
85: Obs. (observed effect) Ecg ([6]; 64 g/ha alone) | Obs. (observed effect) Aa ([12]; 32 g/ha alone)
90: Obs. (observed effect) Lf ([3]; 32 g/ha alone) | Obs. (observed effect) Hl ([13]; 125 g/ha alone)
20: Obs. (observed effect) Ost ([5]; 250 g/ha alone) | Obs. (observed effect) Eoz ([11]; 32 g/ha alone)
0: Obs. (observed effect) Ecc ([4]; 32 g/ha alone) | Obs. (observed effect) Ost ([5]; 64 g/ha alone) | Obs. (observed effect) Ost ([5]; 125 g/ha alone) | Obs. (observed effect) Ecg ([6]; 32 g/ha alone) | Obs. (observed effect) Eor ([9]; 32 g/ha alone)
40: Obs. (observed effect) Oss ([1]; 32 g/ha alone) | Obs. (observed effect) Oss ([1]; 64 g/ha alone) | Obs. (observed effect) Eor ([9]; 125 g/ha alone) | Obs. (observed effect) Hl ([13]; 64 g/ha alone)
30: Obs. (observed effect) Eor ([9]; 64 g/ha alone)
